Assay results from patent US20250134952A1, “METHODS FOR IMPROVING THE EFFICACY OF HDAC INHIBITOR THERAPY AND PREDICTING THE RESPONSE TO TREATMENT WITH HDAC INHIBITOR” (INSTITUT NATIONAL DE LA SANTÉ ET DE LA RECHERCHE MÉDICALE, priority 2021, published 2025).

Experiments:
[1] = system: p21 promoter in MCF7shctrl or shTau cells; experiment: ChIP-qPCR of H3 acetylation and Tau occupancy on the p21 promoter; assay type: cell-based, human; conditions: for acetylated H3 enrichment compared to IgG: p21 promoter (transcription start site region)
Description: (A) Chromatin immunoprecipitations-qPCR analysis of H3 acetylation and Tau occupancy on the GAPDH promoter in MCF7shctrl cells in the indicated conditions. MCF7shctrl cells were subjected to cross-linking by 1% formaldehyde. Chromatin fragments were then immunoprecipitated using antibodies (Ab) against acetylated H3 (ac-H3) or Tau and analyzed by quantitative PCR for the presence of the GAPDH promoter. (B) Functional organization of the p21 promoter. (C) ChIP-qPCR analysis of H3 acetylation in MCF7shctrl or shTau cells or (D) Tau occupancy in MCF7shctrl cells on the p21 promoter. (E) ChIP-qPCR analysis of H3 acetylation or Tau occupancy on the stably transfected GAL4UAS responsive luciferase reporter transfected, or not, with Tau4R, then 24 h later treated with 100 nM TSA for 24 h. Cells were then subjected to cross-linking by 1% formaldehyde. Chromatin fragments were then immunoprecipitated using antibodies (Ab) against acetylated H3 or Tau and analyzed by quantitative PCR for the presence of the GAL4 UAS promoter. Quantification of enrichment is represented as fold-enrichment relative to IgG. Data are mean±SD **P<0.01***P<0.001
The ChIP protocol used was previously described (Lefebvre et al., 2006). Primers sequences for the pGL4.31[luc2P/GAL4 UAS/Hygro] promoter were: forward, 5′-[…]-3′ (SEQ ID N^o1), and reverse, 5′-[…]-3′ (SEQ ID N^o2); for p21 promoter: distal forward 5′-[…]-3′ (SEQ ID N^o3) and reverse 5′-[…]-3′ (SEQ ID N^o4); proximal forward 5′-[…]-3′ (SEQ ID N^o5) and reverse 5′-[…]-3′ (SEQ ID N^o6); p21 (transcription start site) TSS forward: 5′-[…]-3′ (SEQ ID N^o7) and reverse 5′-GCTCTCTCACCTCCTCTG3′ (SEQ ID N^o8); for GAPDH TSS: forward 5′-[…]-3′ (SEQ ID N^o9) and reverse 5′-[…]-3′ (SEQ ID N^o10). Antibodies used in the studies included the following: anti-acetylated H3 (Active motif, 39139) and anti-Tau1 (Millipore, MAB3420). All ChIP analyses were performed in at least two independent experiments.
To test this hypothesis, we next performed chromatin immunoprecipitations assays. Antibodies specific for acetylated H3 (ac-H3) and Tau were used to immunoprecipitate formaldehyde-cross-linked sonicated chromatin from short hairpin Tau knockdowns and control cells treated, or not, with 100 nM TSA. Quantitative PCR analysis of input or immunoprecipitated DNA using acetylated H3 and Tau antibodies was carried out to detect different promoter regions. As a control of non-TSA-inducible gene, we first used primers encompassing the transcription start site of the GAPDH promoter. No change in the level of acetylated H3, nor Tau binding, were detected after TSA treatment (FIG. 3A). […] In addition, Tau was detected at the level of these regions in MCF7shctrl cells (≈4-fold enrichment) in absence or presence of TSA treatment (FIG. 3D).

[2] = system: HP1β clusters in Hela cells; experiment: GFP-HP1β clusters per nuclei, confocal microscopy; assay type: cell-based; conditions: TSA 300 nM, 24 h, control Hela cells
Procedure: (A) Single confocal sections of Hela cells transfected with […], with or without Tau4R or TauP301L and treated 24 h later with the TSA (300 nM) for 24 h. Tau C-terminus antibodies and GFP fluorescence were used to visualize total Tau protein and HP1β respectively. Representative images are shown. (B) Quantification of HP1β clusters per nuclei visualized as described previously and realized on three independent experiments. Data are mean±SD *P<0.05 ***P<0.001.
MCF7shctrl, MCF7shTau or transfected Hela cells with Tau4R and GFP-HP1α were fixed in 4% paraformaldehyde for 30 min at room temperature. Permeabilization was carried out in 0.2% Triton X-100 in phosphate-buffered saline for 10 min at room temperature. After 1 h saturation in 2% bovine serum albumin, immunostaining was performed using Tau antibody (recognizing the C-terminal domain of Tau). […] Nuclear staining was performed by adding 1/2000 DAPI in phosphate-buffered saline for 10 min. Slides were then analyzed with a Zeiss LSM710 confocal laser scanning microscope (60× magnification). Images were collected in the Z direction at 0.80 μm intervals and quantifications were realized using the Image J plug-in.
To this end, we first performed GST-pulldown analysis using purified core histones. As shown previously, Tau interacted specifically with core histones as detected by H3, H4, H2A and H2B antibodies (data not shown). […]

CC(/C=C/C(=O)NO)=C\[C@@H](C)C(=O)c1ccc(N(C)C)cc1 [TSA, 2,4-Heptadienamide, 7-[4-(dimethylamino)phenyl]-N-hydroxy-4,6-dimethyl-7-oxo-, (2E,4E,6R)-]
acetylated H3 enrichment compared to non-treated cells ([1]; 100 nM TSA, MCF7shTau cells, p21 proximal and distal regions): ≈ 10 fold | acetylated H3 enrichment compared to IgG ([1]; 100 nM TSA, shctrl cells): 70 fold | Tau enrichment (occupancy) ([1]; MCF7shctrl cells, p21 proximal and distal regions, in absence or presence of TSA treatment): ≈ 4 fold | acetylated H3 enrichment compared to IgG ([1]; shTau cells, irrespective of TSA treatment): ≈ 160 fold | number of HP1 clusters following TSA treatment [2]: decrease
